According to ChEMBL document CHEMBL1142754, “Lp-PLA2 inhibitory activities of fatty acid glycerols isolated from Saururus chinensis roots” (Bioorg Med Chem Lett, 2005):

Experiment: Inhibitory concentration against lipoprotein-associated phospholipase A2 (Lp-PLA2) was determined in Pseudomonas fluorescens (DMS 115797)

Compound | IC50
CCCCC/C=C\C/C=C\CCCCCCCC(=O)OC[C@H](O)CO | 52 µM
CCCCC/C=C\C/C=C\CCCCCCCC(=O)OC[C@@H](O)CO [GLYCERYL MONOLINOLEATE] | 4.5 µM
